The values that follow come from patent EP1263420B1 (priority 2000, dated 2001).

Structures are written as SMILES. “Also recorded” adds a separate entry of the source.

For one assay, the system named is lung tissue RARs. Put plainly: Western blot of SENCAR mouse lung tissue after dietary RA. The format is in vivo. As for the experimental part:
(§1) The experimental groups were divided in two groups of five mice (Table 5) each including a low and high dose group that were fed either a physiological RA diet of 3µg/g diet) or a pharmacological RA diet (30µg/g diet) for 75 weeks, respectively.
(§2) SENCAR mice (30) were divided into six experimental groups. The experimental groups were as follows (Table 7): groups 1, 3 and 5 (5 mice each) were fed a physiological RA diet (3µg/g diet) for 1, 14 and 28 days; groups 2, 4 and 6 (each of 5 mice) were fed a pharmacological RA diet (30µg/g diet) for 1, 14 and 28 days.
(§3) Polyclonal rabbit anti-mouse antibodies against RAR, and (SANTA CRUZ Biotechnology Inc., San Francisco, CA) were used. BM Chemiluminescense Western Blotting Kit (Mouse/Rabbit) was used (Boehringer Mannheim Corporation, Indianapolis) for the Westerns.
Tissues were collected, frozen in dry ice and kept at -70°C until used. 500mg aliquots were diced in small pieces and homogenized in 300µl of cold PBS, using the hand held homogenizer for 2~3 minutes. Sample and washes were centrifuged at 5000xg for 20 minutes. The pellet was suspended in 400 µl of ice-cold Buffer A [2µl 0.5M EDTA, 10µl 100mM EGTA, 50µl 100mM PMSF, 10µl 1M DTT, 10ml (10mM HEPES pH 7.9 + 10mM KCl)], and left at ice temperature for 15 minutes. 25 µl of 10% solution of NP-40 was added and samples were mixed in a vortex vigorously for 10 seconds. […]

Assay [1] concerns TGase II. Put plainly: TGase II activity in cultured MCF-7 cells. The format is cell-based, human. As for the experimental part: MCF-7 cells were seeded at a density of 1.5 x 10^5 cells/ml medium (500ml DMEM + 56.2ml FBS + 5.6m1 AB/AM) in 6cm diameter dishes for 24 hours and treated with either DMSO, RA, or 13-cis RA at 10^-6 M and grown to confluence (about 72 hours). Cells were harvested and Transglutaminase II activity was measured as described below. Nebulizer solution, inhalation procedures, details of animal housing are described below.
Cultured cells were placed in 100 µl scraping buffer [A: 2800µl (400µl 0.5M Na-Phosphate, 500µl 0.01M EDTA, 100µl 1M DTT , 9ml PBS total 10ml) + B:700µl (10µl 20mg/ml PMSF 790µl PBS total 800µl)] for each dish. Cells were broken by a sonicator and kept in ice until used. TGase II assay was conducted as described below and previously {8217}.
Enzyme assay mixtures were prepared by adding 80µl of SUBSTRATE mixture (322.8µl H2O, 120µl 0.5M NaBorate, 60µl 0.01M EDTA, 60µl 0.1M CaCl2, 6µl 1M DTT, 240µl dimethyl casein, 30µl Triton X-100, 1.2µl [^3H]-Putrescine, 120µl Putrescine) to 20µl sample, 20µl scraping buffer for blank control , 20 µl (18µl scraping buffer + 2µl TGase II) for positive control. Samples were mixed in 15ml tubes, the tubes were shaken before putting them into a 28°C water bath for 30 minutes. Reactions were slowed down in an ice bath. 80µl of the incubation mixture was adsorbed onto paper disks. These were immediately dropped into cold 10% TCA (0.1% Putrescine) and washed with agitation for 7 minutes, followed by 2 additional washes with 5% TCA (0.05% putrescine) for 5~7 minutes, and once more with cold (-20°C) 95% ethanol for 5 minutes. Paper disks were dried and placed into 5ml Aquasol, and counted in a Liquid Scintillation Counter. Protein concentration determination was conducted by the Bradford method.

The test system of another assay is RARα. Put plainly: Western blot of SENCAR mouse liver after dietary RA. The format is in vivo. Conditions: for RARα densitometric analysis: male SENCAR mouse liver. As for the experimental part:
as §1, §2, §3
(§4) Tissues were collected, frozen in dry ice and kept at -70°C until used. 500mg aliquots were diced in small pieces and homogenized in 300µl of cold PBS, using the hand held homogenizer for 2~3 minutes. Sample and washes were centrifuged at 5000xg for 20 minutes. The pellet was suspended in 400 µl of ice-cold Buffer A [2µl 0.5M EDTA, 10µl 100mM EGTA, 50µl 100mM PMSF, 10µl 1M DTT, 10ml (10mM HEPES pH 7.9 + 10mM KCl)], and left at ice temperature for 15 minutes. 25 µl of 10% solution of NP-40 was added and samples were mixed in a vortex vigorously for 10 seconds. Samples were centrifuged at 14,000xg for 1 minute at 4°C and the pellet treated once more in this fashion (resuspended etc.). The supernatant was removed and 100µl of ice-cold Buffer C [4µl 0.5M EDTA, 20µl 100mM EGTA, 20µl 100mM PMSF, 2µl 1 M DTT, 2ml (20mM HEPES pH 7.9 + 0.4M NaCl)] was added. Pellets were resuspended by tapping gently on the bottom of the Eppendorf tubes. Samples were rocked vigorously in a bucket of ice on an orbital shaker for 30 minutes. Samples were centrifuged at 14,000 xg for 5 minutes at 4°C. Protein determination of supernatant was conducted by the Bradford method.
(§5) Samples were prepared by adding one part of the Sample Buffer to one part of the sample and mixing well. Samples were heated at 95°C for 5 minutes to induce denaturation. 5µl of Rainbow Standard and 5µl ofBiotinylated Molecular Marker were added to parallel wells. 20µg protein per sample was loaded in each lane. Electrophoresis was performed with voltage set at 125V for about 1 ~ 1.5 hours. Gel transfer was executed at 25V for 2 hours. The membrane was stained in Ponceau S. for 5 minutes and destained with one wash of 5% acetic acid. The membrane was then washed in TBS solution until the staining disappeared. Membranes were incubated in 1ml blocking solution and 9ml TBS for 60 minutes. Membranes were incubated in 1ml of blocking solution and 19ml TBS along with 20µl primary antibody solution overnight (dilution of 1 : 1000). Membranes were washed in PBS-Tween 20, 3 times for 10 minutes each. They were finally incubated in 1ml blocking solution and 19ml TBS along with 20µl Antibiotin HRP - Linked Antibody and 2µl of secondary (rabbit anti-mouse antibody) (1 : 10,000 dilution) for 30 minutes. The membranes were washed in PBS - Tween 20, 4 times for 10 minutes each. The film was exposed for development and detection.

A further assay has as its system RARγ. The description is as above. It counts as in vivo. Conditions: for RARγ densitometric analysis: male SENCAR mouse liver. As for the experimental part:
as §1, §2, §3, §4, §5

Another assay concerns RARβ. The description is as above. It counts as in vivo. Conditions: for RARβ densitometric analysis: male SENCAR mouse liver. As for the experimental part: as §1, §2, §3, §4, §5
The subject of assay [2] is TGase II. The assay is described as follows: TGase II assay of SENCAR mouse liver tissue after dietary RA. Conditions: 75 Weeks. It counts as in vivo. The method, then: The supernatant was removed and kept in ice until used.
Reactions were slowed down in an ice bath. […] Protein concentration determination was conducted by the Bradford method.

The mark [3] stands for this setting: 30µg/g diet versus 3µg/g diet, 75 weeks.
Where [4] appears, read: pharmacological dietary RA over physiological RA (3µg/g diet), day 1.

On to `CC1=C(/C=C/C(C)=C/C=C/C(C)=C/C(=O)O)C(C)(C)CCC1` [RA, all-trans-retinoic acid], for which the “induction of lung tissue RARs” value with lung tissue RARs (long term feeding, 30µg/g diet) is on record as “failed to induce RARs”. In the assay with lung tissue RARs (time course 1, 14 and 28 days, 30µg/g versus 3µg/g diet, not shown), the “effect on lung tissue RARs” value is listed as “no effect; also recorded: without any measurable effect on lung tissue RARs”. Further, the fold induction at 1 µM in the assay with TGase II [1] (Homo sapiens, MCF7, 72 h, read-out: stimulating TGase II activity) came to 7.4. Moreover, the “TGase II Activity” value with TGase II [1] (MCF-7 cells, 10^-6 M, 72 hours, DMSO control 0.183) was 1.359 +/- 0.098 picomoles/µg protein/30 minutes. Besides, in the assay with RARα (setting [3]), the “upregulated liver RAR (α)” value was 21.8 fold. Moreover, the RARα densitometric analysis in the assay with RARα (3µg/g diet, 75 weeks) is on record as 12.1 +/- 7.2 IDV; in the assay with RARα (30µg/g diet, 75 weeks), 264 +/- 21.3 IDV. In addition, the “stimulated liver RAR (α)” value with RARα (setting [4]) was 2 fold. In the assay with RARγ (setting [3]), the “upregulated liver RAR (γ)” value was 12.5 fold. Besides, the RARγ densitometric analysis with RARγ (3pg/g diet as printed, 75 weeks) is on record as 23.1 +/- 6.7 IDV; with RARγ (30µg/g diet, 75 weeks) it was 288 +/- 17.4 IDV. In the assay on RARγ (setting [4]), the “stimulated liver RAR (γ)” value is 2.1 fold. Besides, in the assay on RARβ (setting [3]), the “upregulated liver RAR (β)” value was determined as 13.5 fold. The RARβ densitometric analysis in the assay on RARβ (3µg/g diet, 75 weeks) is listed as 18.9 +/- 7.4 IDV; with RARβ (30µg/g diet, 75 weeks), 254 +/- 31.9 IDV. Besides, in the assay on RARβ (setting [4]), the “stimulated liver RAR (β)” value is 4 fold. Further, the “TGase II assay DPM/µg protein” value is 49,260 DPM/µg protein with TGase II [2] (pharmacological RA diet 30µg/g) and 9,820 DPM/µg protein in the assay with TGase II [2] (physiological RA diet 3µg/g).
